From US20230265336A1, “COMPOSITION WITH FOAMING PROPERTIES” (priority 2020, published 2023)

Columns and labels:
[1] = based on the safety data sheet (SDS); cited from earlier work

Row | Structure (SMILES) | Solubility in brine (in words) | Biodegradability (in words) [1] | Toxicity as an individual substance (in words) [1]
1 | [O]=[Mg] [MgO] | insoluble |  | 
2 | [Cl-].[Cl-].[Mg+2] [magnesium chloride] |  | good biodegradability | non-toxic
